How the values were obtained:
Assay type in all cases: biochemical
Details in all cases: recombinant enzyme, 20° C., activity level classes
hALDH1a3 = molecular target: T1, hALDH1a3 (Homo sapiens, UniProt P47895); assay: Aldh1a3 enzyme inhibition assay (resorufin fluorescence), human enzyme
T1 construct: made in house; host or cells: E. coli BL21-DE3
T1 sequence (P47895 1-512): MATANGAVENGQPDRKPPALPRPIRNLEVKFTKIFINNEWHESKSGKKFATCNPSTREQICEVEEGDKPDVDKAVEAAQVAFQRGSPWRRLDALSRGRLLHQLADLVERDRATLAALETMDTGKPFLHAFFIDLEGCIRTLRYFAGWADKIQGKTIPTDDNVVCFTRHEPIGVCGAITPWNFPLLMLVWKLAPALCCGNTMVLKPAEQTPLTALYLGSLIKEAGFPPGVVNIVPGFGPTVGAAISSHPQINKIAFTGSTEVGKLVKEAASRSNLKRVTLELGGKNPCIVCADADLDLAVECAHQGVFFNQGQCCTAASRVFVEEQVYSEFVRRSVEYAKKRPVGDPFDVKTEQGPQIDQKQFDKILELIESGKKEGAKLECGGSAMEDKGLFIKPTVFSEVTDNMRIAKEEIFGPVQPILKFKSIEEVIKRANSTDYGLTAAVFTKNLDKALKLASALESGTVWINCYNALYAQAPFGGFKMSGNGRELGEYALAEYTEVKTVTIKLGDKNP

mALDH1a3 = molecular target: T2, mALDH1a3 (Mus musculus, UniProt Q9JHW9); assay: Aldh1a3 enzyme inhibition assay (resorufin fluorescence), mouse enzyme
T2 construct: made in house; host or cells: E. coli BL21-DE3
T2 sequence (Q9JHW9 1-512): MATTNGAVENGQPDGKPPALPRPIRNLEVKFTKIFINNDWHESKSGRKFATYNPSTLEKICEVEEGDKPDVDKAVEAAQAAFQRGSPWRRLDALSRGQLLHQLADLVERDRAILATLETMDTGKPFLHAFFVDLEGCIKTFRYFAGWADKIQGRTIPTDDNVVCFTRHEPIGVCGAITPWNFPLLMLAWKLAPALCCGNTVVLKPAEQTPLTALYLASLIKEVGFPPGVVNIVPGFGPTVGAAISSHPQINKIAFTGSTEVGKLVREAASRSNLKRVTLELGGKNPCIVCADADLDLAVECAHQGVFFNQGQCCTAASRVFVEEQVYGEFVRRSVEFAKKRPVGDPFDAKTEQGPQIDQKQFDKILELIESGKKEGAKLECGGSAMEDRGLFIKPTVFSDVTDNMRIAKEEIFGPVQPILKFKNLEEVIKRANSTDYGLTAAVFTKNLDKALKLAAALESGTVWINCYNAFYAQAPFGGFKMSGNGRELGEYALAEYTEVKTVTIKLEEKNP
Text: Recombinant enzyme and inhibitor added immediately before assay. Reaction rate measured by resorufin fluorescence.

hALDH1a2 = molecular target: T3, hALDH1a2 (Homo sapiens, UniProt O94788); assay: Aldh1a2 enzyme inhibition assay (resorufin fluorescence), human enzyme
T3 construct: made in house; host or cells: E. coli BL21-DE3
T3 sequence (O94788 1-518): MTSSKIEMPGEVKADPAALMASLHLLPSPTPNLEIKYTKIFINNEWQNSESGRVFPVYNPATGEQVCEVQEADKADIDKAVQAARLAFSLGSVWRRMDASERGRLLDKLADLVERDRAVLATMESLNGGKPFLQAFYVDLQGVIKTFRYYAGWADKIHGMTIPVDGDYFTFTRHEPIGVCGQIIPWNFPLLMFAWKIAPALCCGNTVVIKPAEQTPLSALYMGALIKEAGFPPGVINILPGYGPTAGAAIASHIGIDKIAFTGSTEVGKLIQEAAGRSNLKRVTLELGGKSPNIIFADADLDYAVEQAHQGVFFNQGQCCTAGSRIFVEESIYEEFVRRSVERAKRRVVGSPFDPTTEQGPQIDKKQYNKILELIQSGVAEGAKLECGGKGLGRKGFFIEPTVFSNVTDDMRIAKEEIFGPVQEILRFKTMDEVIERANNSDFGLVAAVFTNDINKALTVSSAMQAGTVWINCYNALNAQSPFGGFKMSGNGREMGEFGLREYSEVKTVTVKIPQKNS
Text: (§1) Recombinant enzyme and inhibitor added immediately before assay. Reaction rate measured by resorufln fluorescence.

mALDH1a2 = molecular target: T4, mALDH1a2 (Mus musculus, UniProt Q62148); assay: Aldh1a2 enzyme inhibition assay (resorufin fluorescence), mouse enzyme
T4 construct: made in house; host or cells: E. coli BL21-DE3
T4 sequence (Q62148 1-518): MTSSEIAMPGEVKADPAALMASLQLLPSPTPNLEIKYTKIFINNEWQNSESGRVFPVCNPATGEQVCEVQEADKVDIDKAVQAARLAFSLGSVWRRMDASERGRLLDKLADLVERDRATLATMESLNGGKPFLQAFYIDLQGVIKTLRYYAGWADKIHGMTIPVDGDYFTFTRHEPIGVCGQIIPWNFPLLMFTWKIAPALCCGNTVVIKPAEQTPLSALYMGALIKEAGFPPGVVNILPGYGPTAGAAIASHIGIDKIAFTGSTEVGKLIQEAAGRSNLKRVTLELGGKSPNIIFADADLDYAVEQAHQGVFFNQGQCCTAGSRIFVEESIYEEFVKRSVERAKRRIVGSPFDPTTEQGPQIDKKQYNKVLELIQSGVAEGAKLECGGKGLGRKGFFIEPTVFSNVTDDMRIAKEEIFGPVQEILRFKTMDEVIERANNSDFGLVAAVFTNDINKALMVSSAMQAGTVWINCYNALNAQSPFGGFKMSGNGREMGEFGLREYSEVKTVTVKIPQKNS
Text: as §1

Row | SMILES | hAldh1a3 IC50 (hALDH1a3) | mAldh1a3 IC50 (mALDH1a3) | IC50 (hALDH1a2) | IC50 (mALDH1a2) | IC50 (hALDH1a3) | IC50 (mALDH1a3) | hAldh1a2 IC50 (hALDH1a2) | mAldh1a2 IC50 (mALDH1a2)
1 | Cc1cc(NC(=O)c2ccncc2-c2cccc(C#N)c2)cc2c1NC(=O)CC2 [Compound 12] | No activity | No activity | 1000 to 5000 nM | > 5000 nM |  |  |  | 
2 | CCc1scnc1C(=O)Nc1cc2c(c(C3CC3)c1)NC(=O)CC2 [Compound 45] |  |  | 250 to 1000 nM | 250 to 1000 nM | 1000 to 5000 nM | 100 to 250 nM |  | 
3 | Cc1cc(NC(=O)c2ncsc2CC(F)(F)F)cc2c1NC(=O)C1CC21 (centres unmarked) [Compound 40] |  |  | < 100 nM | < 100 nM | < 100 nM | < 100 nM |  | 
4 | Cc1cc(NC(=O)c2scnc2-c2cccc(F)c2)cc2c1NC(=O)CC2 [Compound 4, 4-(3-fluorophenyl)-N-(8-methyl-2-oxo-1,2,3,4-tetrahydroquinolin-6-yl)thiazole-5-carboxamide] |  |  | 250 to 1000 nM | 250 to 1000 nM | 100 to 250 nM | 250 to 1000 nM |  | 
5 | O=C(Nc1cc(Cl)c2c(c1)C1CC1C(=O)N2)c1scnc1CC(F)(F)F (centres unmarked) [Compound 42] |  |  | 250 to 1000 nM | 1000 to 5000 nM | 100 to 250 nM | < 100 nM |  | 
6 | CCc1ncsc1C(=O)Nc1cc(C)c2c(c1)CCC(=O)N2 [Compound 32] |  |  | 250 to 1000 nM | 250 to 1000 nM | 100 to 250 nM | < 100 nM |  | 
7 | Cc1c(F)c(NC(=O)c2scnc2CC(F)(F)F)cc2c1NC(=O)CC2 [Compound 78] |  |  | 250 to 1000 nM | 1000 to 5000 nM |  |  |  | 
8 | O=C(Nc1cc(Cl)c2c(c1)C1CC1C(=O)N2)c1scnc1CC(F)(F)F (centres unmarked) [Compound 37] |  |  | 100 to 250 nM | 100 to 250 nM | 100 to 250 nM | < 100 nM |  | 
9 | CCc1ncoc1C(=O)Nc1cc(F)c2c(c1)C1CC1C(=O)N2 (centres unmarked) [Compound 62] |  |  | > 5000 nM | > 5000 nM | 1000 to 5000 nM | 1000 to 5000 nM |  | 
10 | O=C1CCc2cc(NC(=O)c3scnc3-c3cccc(F)c3)ccc2N1 [Compound 6, 4-(3-fluorophenyl)-N-(2-oxo-1,2,3,4-tetrahydroquinolin-6-yl)thiazole-5-carboxamide] |  |  | 1000 to 5000 nM | 1000 to 5000 nM | < 100 nM | 100 to 250 nM |  | 
11 | O=C1CCc2cc(NC(=O)c3ccccc3-c3cccc(F)c3)ccc2N1 [Compound 22] |  | No activity | > 5000 nM | > 5000 nM | > 5000 nM |  |  | 
12 | Cc1cc(OCCNC(=O)c2cccc(F)c2)cc2c1NC(=O)CC2 [Compound 8, 3-fluoro-N-(2-((8-methyl-2-oxo-1,2,3,4-tetrahydroquinolin-6-yl)oxy)ethyl)benzamide] | No activity | No activity |  |  |  |  | No activity | No activity
13 | O=C1CCc2cc(NC(=O)c3ncsc3CC(F)(F)F)cc(Cl)c2N1 [Compound 75] |  |  | 100 to 250 nM | 250 to 1000 nM | < 100 nM | 100 to 250 nM |  | 
14 | Cc1c(Cl)c(NC(=O)c2ncsc2CC(F)(F)F)cc2c1NC(=O)CC2 [Compound 73] |  |  | 100 to 250 nM | < 100 nM | < 100 nM | < 100 nM |  | 
15 | CCc1ncsc1C(=O)Nc1cc(Cl)c2c(c1)CCC(=O)N2 [Compound 83] |  |  | < 100 nM | < 100 nM |  |  |  | 
16 | Cc1cc(NC(=O)c2ccncc2CC(F)(F)F)cc2c1NC(=O)CS2(=O)=O [Compound 28] |  |  | > 5000 nM | > 5000 nM | > 5000 nM | 1000 to 5000 nM |  | 
17 | O=C1CCc2cc(NC(=O)c3ccncc3-c3ccccc3F)ccc2N1 [Compound 25] |  | No activity | 1000 to 5000 nM | 1000 to 5000 nM | > 5000 nM |  |  | 

Row | SMILES | hAldh1a3 IC50 (hALDH1a3) | mAldh1a3 IC50 (mALDH1a3) | IC50 (hALDH1a2) | IC50 (mALDH1a2) | IC50 (hALDH1a3) | IC50 (mALDH1a3) | hAldh1a2 IC50 (hALDH1a2) | mAldh1a2 IC50 (mALDH1a2)
18 | CCc1sncc1C(=O)Nc1cc(C)c2c(c1)C1CC1C(=O)N2 (centres unmarked) [Compound 52] |  |  | < 100 nM | 100 to 250 nM | 100 to 250 nM | < 100 nM |  | 
19 | Cc1cc(NC(=O)c2ocnc2CC(F)(F)F)cc2c1NC(=O)CC2 [Compound 56] |  |  | 1000 to 5000 nM | 1000 to 5000 nM | 250 to 1000 nM | 100 to 250 nM |  | 
20 | CCc1ncsc1C(=O)Nc1cc(C)c2c(c1)C1CC1C(=O)N2 (centres unmarked) [Compound 34] |  |  | < 100 nM | < 100 nM | < 100 nM | < 100 nM |  | 
21 | O=C1CCc2cc(NC(=O)c3ccccc3-c3cccc(F)c3)cc(Cl)c2N1 [Compound 24] |  |  | 100 to 250 nM | 250 to 1000 nM | 1000 to 5000 nM | > 5000 nM |  | 
22 | Cc1cc(NC(=O)c2ccncc2-c2cccc(O)c2)cc2c1NC(=O)CC2 [Compound 18] | No activity | No activity | 1000 to 5000 nM | 1000 to 5000 nM |  |  |  | 
23 | CCc1ncsc1C(=O)Nc1cc(Cl)c2c(c1)C1CC1C(=O)N2 (centres unmarked) [Compound 38] |  |  | 100 to 250 nM | 100 to 250 nM | 100 to 250 nM | < 100 nM |  | 
24 | Cc1ccc(-c2cnccc2C(=O)Nc2cc(C)c3c(c2)CCC(=O)N3)cc1 [Compound 13] | No activity | No activity | > 5000 nM | > 5000 nM |  |  |  | 
25 | Cc1cc(NC(=O)c2scnc2C2CC2)cc2c1NC(=O)CC2 [Compound 77] |  |  | 250 to 1000 nM | 250 to 1000 nM | 250 to 1000 nM | 100 to 250 nM |  | 
26 | CCc1nc[nH]c1C(=O)Nc1cc(C)c2c(c1)CCC(=O)N2 [Compound 59] |  |  | 1000 to 5000 nM | 1000 to 5000 nM | 1000 to 5000 nM | 250 to 1000 nM |  | 
27 | Cc1cc(NC(=O)c2ccncc2CC2(C)CC2)cc2c1NC(=O)CC2 [Compound 27] |  |  | 100 to 250 nM | 100 to 250 nM | < 100 nM | 250 to 1000 nM |  | 
28 | Cc1c(F)c(NC(=O)c2ncsc2CC(F)(F)F)cc2c1NC(=O)CC2 [Compound 72] |  |  | 100 to 250 nM | 250 to 1000 nM | 100 to 250 nM | 100 to 250 nM |  | 
29 | CCc1ncsc1C(=O)Nc1cc2c(c(C)c1Cl)NC(=O)CC2 [Compound 81] |  |  | 250 to 1000 nM | 250 to 1000 nM |  |  |  | 
30 | O=C1CCc2cc(NC(=O)c3scnc3-c3cccc(F)c3)c(F)cc2N1 [Compound 5, N-(7-fluoro-2-oxo-1,2,3,4-tetrahydroquinolin-6-yl)-4-(3-fluorophenyl)thiazole-5-carboxamide] |  |  | 1000 to 5000 nM | 1000 to 5000 nM | < 100 nM | 100 to 250 nM |  | 
31 | Cc1cc(NC(=O)c2ccncc2-c2ccc(O)cc2)cc2c1NC(=O)CC2 [Compound 19] | No activity | No activity | 1000 to 5000 nM | 1000 to 5000 nM |  |  |  | 
32 | CCc1ncsc1C(=O)Nc1cc2c(c(C)c1F)NC(=O)CC2 [Compound 79] |  |  | 250 to 1000 nM | 250 to 1000 nM |  |  |  | 
33 | Cc1c(Cl)c(NC(=O)c2scnc2CC(F)(F)F)cc2c1NC(=O)CC2 [Compound 80] |  |  | 100 to 250 nM | 250 to 1000 nM |  |  |  | 

Source: US20260151383A1, “HETEROCYCLIC COMPOUNDS AND USES THEREOF” (KayoThera Inc., priority 2022, published 2026)
